For the test, the system named is HCV proteins in Rep5.1 cells (replicon cell line). Description: Inhibitory activity of HCV: cell-based ELISA in replicon cell line Rep5.1 (decrease of HCV proteins). More on the design: species or system hepatitis C virus. In a few lines:
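HCV protein loss was quantified by ELISA on methanol/acetone-fixed cells 72 h after drug addition, probing with selected HCV-positive human plasma, and IC50 was defined as 50% reduction relative to untreated wells. The cells were Rep5.1 replicon cells cultured in DMEM-10 with 500 μg/ml G418, plated at 5000 per well and dosed with serial dilutions after 4 h attachment.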

Setting [1] is: Hepatitis C virus, 72 h, Rep5.1 cells, 72 hours with drug, concentration at which 50% of HCV proteins was decreased, Table 2, read-out: IC50.
Setting [2] is: Hepatitis C virus, 72 h, Rep5.1 cells, 72 hours with drug, decrease of HCV proteins measured by HCV antibody, Table 1, read-out: Level (IC50 values classified).

13 compounds from patent US20060116390A1, “Hepatitis c virus inhibitors” (priority 2003, published 2006) can be followed below.

Molecules are shown by their SMILES. Like-named read-outs stand apart in the source and are kept apart here.

The IC50 is the point on the concentration scale where inhibition reaches its midpoint. On to `CC1=C(C(=O)OCCc2ccc(F)cc2)CNC(=S)N1` [Compound 93, 6-methyl-2-thioxo-1,2,3,4-tetrahydro-pyrimidine-5-carboxylic acid 2-(4-fluoro-phenyl)-ethyl ester], for which the 50% inhibitory concentration (IC50) (Rep5.1 cells, 72 hours with drug, concentration at which 50% of HCV proteins was decreased, Table 2, read-out: IC50) was found to be 700 nM. On to `CC1=C(C(=O)OCCc2ccc(Cl)cc2)CNC(=S)N1` [Compound 94, 6-methyl-2-thioxo-1,2,3,4-tetrahydro-pyrimidine-5-carboxylic acid 2-(4-chloro-phenyl)-ethyl ester], for which the IC50 under setting [1] was below 400 nM and the IC50 under setting [2] is below 1000 nM. On to `CC1=C(C(=O)OCCc2ccc(N(C)C)cc2)CNC(=S)N1` [Compound 95, 6-methyl-2-thioxo-1,2,3,4-tetrahydro-pyrimidine-5-carboxylic acid 2-(4-dimethylamino-phenyl)-ethyl ester], for which the IC50 by setting is: under setting [1], 700 nM; under setting [2], below 1000 nM. For `C=C(C)[C@@H]1CC=C(COC(=O)C2=C(C)NC(=S)NC2)CC1` [Compound 96, 6-methyl-2-thioxo-1,2,3,4-tetrahydro-pyrimidine-5-carboxylic acid (s)-(−)-4-isopropenyl-cyclohex-1-enylmethyl ester] the same measures were below 400 nM and below 1000 nM. Consider `CC1=C(C(=O)OCC2=CCC3CC2C3(C)C)CNC(=S)N1` (stereo not shown) [Compound 97, 6-methyl-2-thioxo-1,2,3,4-tetrahydro-pyrimidine-5-carboxylic acid 6,6-dimethyl-bicyclo[3.1.1]hept-2-en-2-ylmethyl ester], for which the 50% inhibitory concentration (IC50) is below 400 nM (Hepatitis C virus, 72 h) and below 1000 nM (Hepatitis C virus, 72 h, read-out: Level (IC50 values classified)). For the compound `C=C(Cl)COC(=O)C1=C(C)NC(=S)NC1` [Compound 98, 6-methyl-2-thioxo-1,2,3,4-tetrahydro-pyrimidine-5-carboxylic acid 2-chloro-allyl ester], the half-maximal inhibitory concentration (IC50) runs as follows: under setting [1], 7000 nM; under setting [2], 1000 to 10000 nM. On the same counts, the results for `C=C(Br)CCOC(=O)C1=C(C)NC(=S)NC1` [Compound 99, 6-methyl-2-thioxo-1,2,3,4-tetrahydro-pyrimidine-5-carboxylic acid 3-bromo-but-3-enyl ester] are 1800 nM and 1000 to 10000 nM.

As for `CC1=C(C(=O)OCc2ccccc2C(F)(F)F)CNC(=S)N1` [Compound 100, 6-methyl-2-thioxo-1,2,3,4-tetrahydro-pyrimidine-5-carboxylic acid 2-trifluoromethyl-benzyl ester], the 50% inhibitory concentration (IC50) under setting [1] is below 400 nM and the IC50 under setting [2] was below 1000 nM. With `CC1=C(C(=O)OCc2cccc(C(F)(F)F)c2)CNC(=S)N1` [Compound 101, 6-methyl-2-thioxo-1,2,3,4-tetrahydro-pyrimidine-5-carboxylic acid 3-trifluoromethyl-benzyl ester], the half-maximal inhibitory concentration (IC50) under setting [1] was below 400 nM and the half-maximal inhibitory concentration (IC50) under setting [2] is below 1000 nM. For `CC1=C(C(=O)OCCc2c[nH]c3ccccc23)CNC(=S)N1` [Compound 102, 6-methyl-2-thioxo-1,2,3,4-tetrahydro-pyrimidine-5-carboxylic acid 2-(1H-indol-3-yl)-ethyl ester] the same measures were 2000 nM and 1000 to 10000 nM. Consider `CC1=C(C(=O)OCCCc2ccc(F)cc2)CNC(=S)N1` [Compound 103, 6-methyl-2-thioxo-1,2,3,4-tetrahydro-pyrimidine-5-carboxylic acid 3-(4-fluoro-phenyl)-propyl ester], for which the half-inhibitory concentration (IC50) under setting [1] is below 400 nM and the concentration for half-maximal inhibition (IC50) under setting [2] was below 1000 nM. On the same counts, the results for `COc1ccccc1CCCOC(=O)C1=C(C)NC(=S)NC1` [Compound 104, 6-methyl-2-thioxo-1,2,3,4-tetrahydro-pyrimidine-5-carboxylic acid 3-(2-methoxy-phenyl)-propyl ester] are below 400 nM and below 1000 nM. On the same counts, the results for `CSc1ccc(CCCOC(=O)C2=C(C)NC(=S)NC2)cc1` [Compound 105, 6-methyl-2-thioxo-1,2,3,4-tetrahydro-pyrimidine-5-carboxylic acid 3-(4-methylsulfanyl-phenyl)-propyl ester] are below 400 nM and below 1000 nM.
